In patent US5250537A, “5,6,7,8,9,10-hexahydro-7 ,10-iminocyclohept[b]indole,-6,7,8,9,10-hexahydro-7,11-imino-5H-cyclooct[ b]indole and substituted derivatives” (Scios Nova Inc., priority 1992, dated 1993):
Structures can show the parent of a compound that is named as a salt. Where two headings read alike, the source gives them in different places.

Tests used:
dopamine receptors [1] = settings: Welch et al. 1980; cited from earlier work
[2] = target: T1, serotonin 5-HT2 receptors (Rattus norvegicus, UniProt P14842); assay: In Vitro Serotonin (5-HT2) Receptor Binding, [3H]ketanserin; settings: for Ki: rat cortical membranes, 1 nM [3H]ketanserin
T1 construct: Rat cortical synaptosomal membranes were prepared on the day of assay; from tissue; host or cells: rat frontal cortex synaptosomal membranes
T1 sequence (P14842 whole entry): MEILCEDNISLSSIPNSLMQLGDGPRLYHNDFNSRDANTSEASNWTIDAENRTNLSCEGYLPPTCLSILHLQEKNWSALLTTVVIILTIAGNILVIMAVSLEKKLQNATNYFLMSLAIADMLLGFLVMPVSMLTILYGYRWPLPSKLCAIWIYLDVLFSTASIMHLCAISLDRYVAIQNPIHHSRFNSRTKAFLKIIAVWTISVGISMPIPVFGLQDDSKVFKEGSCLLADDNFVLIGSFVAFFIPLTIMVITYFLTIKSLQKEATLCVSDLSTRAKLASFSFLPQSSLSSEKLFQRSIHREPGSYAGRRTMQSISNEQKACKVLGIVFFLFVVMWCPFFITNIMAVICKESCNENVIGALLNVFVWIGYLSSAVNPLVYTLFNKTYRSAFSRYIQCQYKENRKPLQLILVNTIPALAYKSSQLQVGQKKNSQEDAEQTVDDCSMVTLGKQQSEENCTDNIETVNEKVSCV
Description: The potency of compounds to inhibit the specific binding of [^3 H]ketanserin (84.2 Ci/mM) to serotonin 5-HT2 receptors was determined as detailed previously [J. E. Leysen, C. J. E. Niemegers, J. M. Van Neuten and P. M. Laduron, Mol. Pharmacol., 21, 301-314 (1982)]. Rat cortical synaptosomal membranes were prepared on the day of assay. Animals were sacrified by decapitation, the frontal cortex was removed and homogenized in 10 volumes (w/v) of ice-cold 0.32M sucrose using a motor driven teflon pestle fitted to a glass tube. The synaptosomal pellet was suspended in 50 mM Tris HCl (pH 7.6 at 25° C.) to a concentration of 7.5 mg original wet weight/mL. For the binding reaction, 400 μL of this tissue suspension was added to polypropylene tubes containing 50 mM Tris HCl and [^3 H]ketanserin (final concentration of 1 nM) in a final assay volume of 0.5 mL. Following a 15 minute incubation at 37° C., the binding reaction was terminated by rapid vacuum filtration over Whatman GF/B filters (presoaked in 0.1% PEI) followed by 3×4 mL washes with ice cold 50 mM Tris HCl. Nonspecific binding was assessed in the presence of 10 μM methysergide. All incubations were performed in triplicate. IC50 values were determined using log logit analysis.

[3] = target: sigma receptor ([3H]DTG site); assay: In Vitro Sigma Receptor Binding, [3H]DTG; settings: guinea pig brain; 45 minutes at 25° C.
Description: (§1) For both assays frozen guinea pig brains (PelFreez Biologicals, Rogers, AK) were thawed and homogenized in 10 volumes (w/v) of ice cold 0.32M sucrose using 10 strokes of a motor-drivenglass-fitted teflon pestle adjusted to 600 rpm. The homogenate was centrifuged (4° C.) at 900× g for 10 minutes and the resultant supernatant collected and centrifuged at 22,000×g for 20 minutes. The pellet obtained from the centrifugation was resuspended in 10 volumes of 50 mM Tris HCl (pH 7.4, 25° C.) and incubated for 30 minutes at 37° C. Following the preincubation, the homogenate was centrifuted at 22,000×g for 20 minutes and the final pellet was resuspended in buffer to a protein concentration of 0.5-1.0 mg/mL for use in the assay.
(§2) Binding reactions were initiated by the addition of tissue (800 μL) to tubes containing assay buffer, the radioligand (final concentration 1-3 nM) and the compound of interest. Haloperidol (10 μM) and (+)-3-PPP (10 μM) were used to determine the levels of […] [^3 H]DTG and [^3 H](+)PPP binding, respectively. Final assay volume was 1 mL. Reactions were allowed to proceed for 45 minutes at 25° C. and terminated by rapid filtration over Whatman GF/B filters which were washed 3 times with 5 mL of cold buffer. Radioactivity trapped on the filters was determined using routine methods. […] All assays were performed using triplicate determinations. For comparison purposes, IC50 values are reported rather than Ki values.

[4] = target: T2, sigma receptor ([3H](+)-3-PPP site) (Cavia porcellus, UniProt Q60492); assay: In Vitro Sigma Receptor Binding, [3H](+)-3-PPP; set-up: species or system guinea pig; settings: 45 minutes at 25° C.
T2 construct: frozen guinea pig brains; tissue PelFreez Biologicals, Rogers, AK; host or cells: guinea pig brain membranes
T2 sequence (Q60492 whole entry): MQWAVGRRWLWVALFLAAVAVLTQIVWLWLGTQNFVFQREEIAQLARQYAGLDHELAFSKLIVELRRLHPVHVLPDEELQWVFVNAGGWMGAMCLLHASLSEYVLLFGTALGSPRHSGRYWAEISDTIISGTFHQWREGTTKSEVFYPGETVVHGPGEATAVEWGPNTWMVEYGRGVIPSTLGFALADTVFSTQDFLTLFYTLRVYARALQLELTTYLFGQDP
Description: as §1, §2

dopamine (D-2) receptors = target: T3, dopamine (D-2) receptors (Rattus norvegicus, UniProt P61169); assay: In Vitro Dopamine (D-2) Receptor Binding, [3H]sulpiride; settings: read-out: Dopamine D-2 [3H]sulpiride Ki
T3 construct: the corpus striatum was dissected and homogenized; from tissue; host or cells: rat corpus striatum membranes
T3 sequence (P61169 whole entry): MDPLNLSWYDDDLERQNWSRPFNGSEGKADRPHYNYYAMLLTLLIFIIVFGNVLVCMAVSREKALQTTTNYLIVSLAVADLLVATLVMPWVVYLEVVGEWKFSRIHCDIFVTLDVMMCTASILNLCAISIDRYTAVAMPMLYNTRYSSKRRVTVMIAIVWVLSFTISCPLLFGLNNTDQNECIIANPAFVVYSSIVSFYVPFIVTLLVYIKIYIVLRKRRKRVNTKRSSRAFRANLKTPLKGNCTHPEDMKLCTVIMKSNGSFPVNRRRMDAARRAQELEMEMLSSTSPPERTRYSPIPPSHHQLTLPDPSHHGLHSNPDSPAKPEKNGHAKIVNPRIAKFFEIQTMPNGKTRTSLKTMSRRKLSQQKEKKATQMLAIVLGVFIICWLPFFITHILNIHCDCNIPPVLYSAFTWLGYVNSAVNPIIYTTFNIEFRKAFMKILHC
Description: On the day of assay, rats were sacrificed by decapitation, the corpus striatum was dissected and homogenized in 20 volumes of ice-cold 50 mM Tris HCl (pH 7.5, 25° C.). The homogenate was centrifuged (4° C.) at 48,000×g for 10 minutes and the resulting pellet was resuspended in 20 volumes of fresh buffer and recentrifuged. […] A portion of the suspension (800 μL) was added in triplicate to tubes containing 3 nM [^3 H]sulpiride and the test compound. The final assay volume was 1 mL; haloperidol (10 μM) was used to determine non-specific binding. Following a 60 minute incubation at 25° C., the reactions were terminated by rapid filtration over Whatman GF/B filters which had been pretreated in a solution of 0.3% (w/v) of aqueous polyethylenimine. Filters were washed three times using 5 mL of ice-cold buffer and processed using standard procedures to determine radioactivity. IC50 values were obtained from concentration-response curves in which a number of concentrations of test compound were examined. Ki values were determined using the Cheng-Prusoff equation.

[5] = Motor impairment (rotorod); assay type: in vivo, mice (CF-1); settings: for dose at which impairment of rotorod performance was noted: oral
Description: (§3) The potency of selected compounds to produce catalepsy and motor impairment was evaluated according to the following methods. Groups of male CF-1 mice (Harlan Sprague-Dawley, Inc.), weighing 25-30 g, were food-deprived for 3-5 hours prior to oral administration of the compound of interest. These agents were suspended in 10% DMSO/10% Tween/80% distilled water vehicle and administered in a volume of 0.01 mL/g body weight. Fifty-five minutes after oral (po) administration, the presence or absence of catalepsy was determined by placing the forepaws on a rod (6 mm diameter) mounted 39 mm above the floor of the test chamber. Pressure was applied to immobilize the subject with its back in a concave position. Following removal of pressure, the latency to recover normal posture, as defined by the return of at least one forepaw to the floor of the chamber, or the placement of one hindlimb on the bar, was recorded. Mice were tested three times and considered cataleptic if recovery was not apparent within 30 seconds during any of the three trials. Following determination of catalepsy and at 60 minutes post administration of compound, motor impairment was determined by placing mice on a rotating knurled bar (Rotorod, Ugo Basile model 7600; 6-7 revolutions per minute; 3.8 cm diameter). Mice were tested up to three times; mice failing to remain on the bar for 60 sec during all three tests were considered impaired.

dopamine receptors [6] = assay: In Vivo Dopamine Antagonist Activity (inhibition of apomorphine-induced climbing); set-up: species or system mice (CF-1)
[7] = In vivo Cataleptic Activity; set-up: species or system mice (CF-1); settings: for catalepsy (in words): any dose tested, oral
Description: as §3

dopamine D-2 receptors = settings: Snyder and Largent 1988; cited from earlier work
sigma receptors = settings: Snyder and Largent 1988; cited from earlier work
[8] = guinea pig brain, read-out: Sigma [3H](+)-3-PPP binding IC50
[9] = rat corpus striatum, 3 nM [3H]sulpiride

Structure (SMILES)	IC50 [3] [nM]	IC50 [4, 8] [nM]	Ki (dopamine (D-2) receptors; [9]) [nM]	Ki [2] [nM]	other results
OC(CCCN1CC[C@@H]2[C@@H](C1)c1cc(F)ccc1N2c1ccc(F)cc1)c1ccc(F)cc1 (relative stereo) [4a,9b-trans-8-fluoro-5-(4-fluorophenyl)-2-[4-(4-fluorophenyl)-4-hydroxy-butyl]-2,3,4,4a,9b-hexahydro-1H-pyrido[4,3-b]indole hydrochloride]	–	–	–	–	neuroleptic activity (in words) (dopamine receptors [1]): potent neuroleptic which acts by blocking dopamine receptors
O=C1c2ccccc2C(=O)N1CCCN1C2CCC1c1c([nH]c3ccc(F)cc13)C2 (centres unmarked) [6 F H (CH2)3 2-phthalimido 2]	836	3330 ± 1810	12300 ± 1700	–	inhibition at 1 µM ([2]; read-out: Serotonin 5-HT2 [3H]ketanserin, value @ 1 μM): 4.9%
O=C(COc1ccc(Cl)c(Cl)c1)N1C2CCC1c1c([nH]c3ccccc13)C2 (centres unmarked) [7 H H COCH2 O-3,4-Cl2 Ph 2]	> 10000	> 10000	64500	–	inhibition at 1 µM ([2]; read-out: Serotonin 5-HT2 [3H]ketanserin, % @ 1 μM): 24.7%
Fc1ccc(CCCCN2C3CCCC2c2c([nH]c4ccc(F)cc24)C3)cc1 (centres unmarked) [11 F H (CH2)4 4-FPh 3]	61	150	1470	205	–
Fc1ccc(C(=CCCN2C3CCCC2c2c([nH]c4ccccc24)C3)c2ccc(F)cc2)cc1 (centres unmarked) [11 H H (CH2)2 CHC (4-FPh)2 3]	1880	> 10000	2310	> 1000	–
O=C(CCCN1C2CCCC1c1c([nH]c3ccccc13)C2)c1ccc(F)cc1 (centres unmarked) [11 H H (CH2)3 CO 4-FPh 3]	43	–	38	0.46	IC50 ([4]; Sigma [3H](+)-3-PPP binding IC50, guinea pig brain): 89 nM
Fc1ccc(CCCCN2C3CCCC2c2c([nH]c4ccccc24)C3)cc1 (centres unmarked) [11 H H (CH2)4 4-FPh 3]	64	279	915	23.6	–
Fc1ccc(C(=CCCN2C3CCCC2c2c([nH]c4ccc(F)cc24)C3)c2ccc(F)cc2)cc1 (centres unmarked) [12 F H (CH2)2 CHC (4-FPh)2 3]	1910	10000	3730	625	–
O=C(CCCN1C2CCCC1c1c([nH]c3ccc(F)cc13)C2)c1ccc(F)cc1 (centres unmarked) [12 F H (CH2)3 CO 4-FPh 3]	23	103	–	2.5	Ki (dopamine (D-2) receptors): 200 nM
Fc1ccc2[nH]c3c(c2c1)C1CCCC(C3)N1CCCCc1ccccc1 (centres unmarked) [12 F H (CH2)4 Ph 3]	42	117	1870	172	–
Fc1ccc2[nH]c3c(c2c1)C1CCCC(C3)N1 (centres unmarked) [12 F H -- H 3]	509	305	58300	3000	–
O=C(CCCCN1C2CCC1c1c([nH]c3ccccc13)C2)c1ccc(F)cc1 (centres unmarked) [Example 1 H H (CH2)4 CO 4-FPh 2, 11-[5-(4-fluorophenyl)-5-oxopentyl]-5,6,7,8,9,10-hexahydro-7,10-iminocyclohept[b]indole]	–	–	–	–	Failing Rotorod Number ([5]; 300 mg/kg po, n=4): 1; Failing Rotorod Number ([5]; 500 mg/kg po, n=4): 4; dose at which impairment of rotorod performance was noted [5]: 300 to 500 mg/kg; potency (ED50) to inhibit apomorphine-induced climbing (dopamine receptors [6]; oral administration, apomorphine 3 mg/kg sc): 15.7 mg/kg; Cataleptic Number ([7]; 300 mg/kg po, n=4): 0; Cataleptic Number ([7]; 500 mg/kg po, n=4): 0; catalepsy (in words) [7]: catalepsy was not observed
O=C(CCCN1C2CCC1c1c([nH]c3ccc(F)cc13)C2)c1ccc(F)cc1 (centres unmarked) [Example 4 F H (CH2)3 CO 4-FPh 2, 2-fluoro-11-[4-(4-fluorophenyl)-4-oxobutyl]-5,6,7,8,9,10-hexahydro-7,10-iminocyclohept[b]indole]	–	–	–	–	Failing Rotorod Number ([5]; 300 mg/kg po, n=4): 2; Failing Rotorod Number ([5]; 500 mg/kg po, n=3): 1; dose at which impairment of rotorod performance was noted [5]: 300 to 500 mg/kg; Cataleptic Number ([7]; 300 mg/kg po, n=4): 0; Cataleptic Number ([7]; 500 mg/kg po, n=3): 0; catalepsy (in words) [7]: catalepsy was not observed
CN(C)CCCN1c2ccccc2Sc2ccc(Cl)cc21 [chlorpromazine]	–	–	–	–	binding to dopamine D-2 receptors (in words) (dopamine D-2 receptors): bind to both dopamine D-2 and sigma receptors; binding to sigma receptors (in words) (sigma receptors): bind to both dopamine D-2 and sigma receptors
O=C(CCCN1CCC(O)(c2ccc(Cl)cc2)CC1)c1ccc(F)cc1 [haloperidol]	–	–	–	–	potency to inhibit apomorphine-induced climbing (reference) (dopamine receptors [6]; intraperitoneal (ip) administration): 0.01 mg/kg; binding to dopamine D-2 receptors (in words) (dopamine D-2 receptors): bind to both dopamine D-2 and sigma receptors; binding to sigma receptors (in words) (sigma receptors): bind to both dopamine D-2 and sigma receptors
